Laboratory results: US20240287614A1, “RECIPROCAL MICRORNA-MRNA PAIRINGS AS BIOMARKERS AND THERAPEUTIC TARGETS IN CANCER” (UNIVERSITY OF MARYLAND, EASTERN SHORE, priority 2023, published 2024)

Assays:
[1] = test system: prostate cancer (LNCaP and PC-3) and prostate cancer (RC77 T/E and MDA PCa 2b) cell lines; experiment: BrdU-labeling cell proliferation assay; type: cell-based, human; details: PC-3, RC77 T/E and MDA PCa 2b, 48 h transfection, vs NS
Description: […] RC77 T/E, a primary prostate cancer cell line derived from a patient, was kindly provided by Dr. Johng Rhim at Center for Prostate Disease Research (CPDR) in Rockville, MD. LNCaP and PC-3 were served as prostate cancer cell line models, and RC77 T/E and MDA PCa 2b were served as prostate cancer cell models in the study. The cells were cultured in specific cell culture media, LNCaP was cultured in RPMI with 10% fetal bovine serum (FBS), PC-3 was cultured in DMEM with 10% FBS, MDA PCa 2b were cultured in BRFF-HPC1 with 20% FBS and RC77 T/E was cultured in Keratinocyte SFM with Human Recombinant Epidermal Growth Factor (EGF 1-53) and Bovine Pituitary Extract (BPE). Cells were maintained at 37° C. in a 5% CO2 incubator. LNCaP, PC-3 and MDA PCa 2b cells were seeded at density 3×10^4 cells/well in 6-well plates. RC77 T/E cells were seeded at density 5×10^4 cells/well in 6-well plates. […]
LNCaP, PC-3, RC77 T/E and MDA PCa 2b cells were seeded at density 3×10^4 cells/well in 6-well culture plates. […] 100 μL of stop solution was used to stop further reaction and followed by checking absorbance at dual wavelengths of 450 nm and 540 nm using Multiskan FC microplate photometer (Thermo Scientific).

[2] = test system: prostate cancer (LNCaP and PC-3) and prostate cancer (RC77 T/E and MDA PCa 2b) cell lines; experiment: Caspase 3/7 activity-based apoptosis assay, prostate cancer cell lines; parameters: species or system human
Description: […] RC77 T/E, a primary prostate cancer cell line derived from a patient, was kindly provided by Dr. Johng Rhim at Center for Prostate Disease Research (CPDR) in Rockville, MD. LNCaP and PC-3 were served as prostate cancer cell line models, and RC77 T/E and MDA PCa 2b were served as prostate cancer cell models in the study. The cells were cultured in specific cell culture media, LNCaP was cultured in RPMI with 10% fetal bovine serum (FBS), PC-3 was cultured in DMEM with 10% FBS, MDA PCa 2b were cultured in BRFF-HPC1 with 20% FBS and RC77 T/E was cultured in Keratinocyte SFM with Human Recombinant Epidermal Growth Factor (EGF 1-53) and Bovine Pituitary Extract (BPE). Cells were maintained at 37° C. in a 5% CO2 incubator. LNCaP, PC-3 and MDA PCa 2b cells were seeded at density 3×10^4 cells/well in 6-well plates. RC77 T/E cells were seeded at density 5×10^4 cells/well in 6-well plates. The cells were allowed to grow for 24 h and then were either transfected with miR-34a-5p mimic, miR-99b-5p mimic, or miR-96-5p antagomir using DharmaFECT4 transfection reagent (Dharmacon), according to the manufacturer's protocol. After 24 h, the cells were replaced with fresh media then incubated for 24 h. miR-34a-5p mimic, miR-99b-5p mimic, miR-96-5p antagomir, and nonsense miRNA mimic and antagomir controls were purchased from Ambion. Nonsense/scrambled miRNA mimic and antagomir were used as negative controls.
For the measurement of apoptosis initiation by transfection of miRNA mimic or antagomir in prostate cancer cells, the transfected cells 5000 cells/well were seeded onto 96-well cell culture plates (Corning) and then incubated overnight. The miRNA mimic/antagomir transfected cells were then treated with vehicle or […] of Docetaxel. 24 h after the vehicle or drug treatment, the apoptosis assays were performed using Apo-ONE Caspase-3/7 Assay Kit (Promega Corporation) according to the protocol described by the manufacturer. 100 μL of homogeneous Caspase-3/7 reagent was added to the sample plate and incubated at room temperature for 1 h. Fluorescence was detected for measuring the apoptosis state (Caspase 3/7 activity) using Biotek Synergy HT Microplate Reader (BioTek) at wavelengths of 499 nm and 521 nm for excitation and emission, respectively.

[3] = test system: cancer cell lines (HT-29, SW620, MDA MB 231, MCF-7, A549, and H1299); experiment: TUNEL assay; type: cell-based, human; details: mimic vs NS transfected cancer cells; 48 h
Description: TUNEL assay was carried out according to the manufacturer's protocol (Click-iT™ Plus In-situ Apoptosis Detection with Alexa Fluor Dyes, Thermo Fisher Scientific). Precisely, 4×10^4 cells (HT-29, SW620, MDA MB 231, MCF-7, A549, and H1299) were seeded on coverslips and allowed to adhere for 24 h in 5% CO2 incubator at 37° C. These cells were fixed in 4% paraformaldehyde in 1×PBS after exposure of miR-99b-5p mimic or negative control mimic for 48 h, then washed with PBS three times followed by the incubation with 0.25% Triton X-100 in 1×PBS and ultimately the cells were incubated with differential steps of TUNEL reaction mixture as per the manufacturer's protocol. Lastly, the processed cells were counterstained with DAPI for 5 min, at room temperature in the dark. All labeled and/or prepared cells were mounted on glass slides and were visualized by Olympus BX3 fluorescence microscope (Olympus). Cell images were captured from 3-4 random areas at 10× magnification by using CellSens V1.18 software (Olympus).

## miR-99b-5p mimic: miRNA mimic of miR-99b-5p (SEQ ID NO: 2, CACCCGUAGAACCGACCUUGCG), purchased from Ambion (listed as RNA, chemistry not given here; listed as Homo sapiens)
[1]
  cell proliferation (BrdU labeling): reduction
[2]; LNCaP cells, 11 mM of Docetaxel, 24 h
  docetaxel-induced cytotoxicity (caspase 3/7 activity), combination with docetaxel: further enhanced
[2]; RC77 T/E and MDA PCa 2b, 11 mM of Docetaxel, 24 h
  apoptosis (caspase 3/7 activity), transfection in the presence of docetaxel: significantly induced apoptosis
[2]; absence of docetaxel (vehicle control), LNCaP, PC-3, RC77 T/E, MDA PCa 2b
  cell apoptosis (caspase 3/7 activity) compared with NS transfected cells: overall generalized or significant increase
[3]
  DNA breakages (TUNEL red fluorescent signals in nuclei): enhanced
